Test system: rabbit skeletal myofibrils (fast skeletal myofibrils)
Assay: Activation of fast skeletal myofibrils (PUMA assay, PK/LDH-coupled ATPase at pCa25)
Type: biochemical
Method in brief: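 ATPase activity of Triton-washed rabbit skeletal myofibrils, roughly 90% fast fibres, tracked by NADH loss at 340 nm through a PK/LDH-coupled ADP-regenerating system. Calcium set to 25% of maximal activity (pCa25), in PIPES 12 mM pH 6.8 with 2 mM MgCl2 and 1 mM DTT; AC1.4 reported.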

[1] = median AC1.4 class, procedure of Example 39
[2] = median AC1.4 reported as class, procedure of Example 39
[3] = AC1.4 determined according to the procedure of Example 39, reported as class symbols

SMILES | Mean AC1.4 [1] | Mean AC1.4 [3] | also measured
NC(=O)c1ccc(F)c(-c2ccc(NC3(c4ncccc4Cl)CCC3)nn2)c1 | A (A=<1 uM) | – | –
NC(=O)c1cccc(-c2ccc(NC3(c4ccc(Cl)cc4)CCC3)nn2)c1 | B (B=1-10 uM) | – | –
N#Cc1ccc(C2(Nc3ccc(-c4cccc(C(N)=O)c4)nn3)CCC2)cc1 | D (D=>20 uM) | – | –
COc1ccnc(C2(Nc3ccc(-c4cccc(C(N)=O)c4)nn3)CCC2)c1 | D (D=>20 uM) | – | –
NC(=O)c1cccc(-c2ccc(NC3(c4ccc(F)cn4)CCC3)nn2)c1 | B (B=1-10 uM) | – | –
N#Cc1cc(-c2ccc(NC3(c4ccc(F)cc4)CCC3)nn2)ccn1 | B (B=1-10 uM) | – | –
NC(=O)c1cc(-c2ccc(NC3(c4ccc(F)cc4)CCC3)nn2)ccn1 | B (B=1-10 uM) | – | –
NC(=O)c1ccc(F)c(-c2ccc(NC3(c4ncccc4F)CCC3)nn2)c1 | B (B=1-10 uM) | – | –
NC(=O)c1ccc(F)c(-c2ccc(NC3(c4ccc(F)cc4)CCC3)nn2)c1 | A (A=<1 uM) | – | –
CC(C)(CNc1ccc(-c2cn3c(C(N)=O)csc3n2)nn1)c1ncccc1Cl | – | – | Mean AC1.4 [2]: A (A=<1 uM)
CS(=O)(=O)Nc1cccc(-c2ccc(NC3(c4ccc(F)cc4)CCC3)nn2)c1 | A (A=<1 uM) | – | –
CS(=O)(=O)Nc1ccc(-c2ccc(NC3(c4ccc(F)cc4)CCC3)nn2)cc1 | B (B=1-10 uM) | – | –
CC(C)(CNc1ccc(C(=O)N[C@H]2CCC[C@H]2C(N)=O)nn1)c1ccc(F)cc1 (stereo in doubt) [(2S,1R)-2-[(6-{[2-(4-fluorophenyl)-2-methylpropyl]amino}pyridazin-3-yl)carbonylamino]cyclopentane-carboxamide] | – | D (D=>20 uM) | –
CC(O)(c1cnc(-c2ccc(NCC3(c4ncccc4F)CCC3)nn2)s1)C(F)(F)F (centres unmarked) [1,1,1-trifluoro-2-{2-[6-({[(3-fluoro(2-pyridyl))cyclobutyl]methyl}ami-no)pyridazin-3-yl](1,3-thiazol-5-yl)}propan-2-ol] | C (C=10-20 uM) | – | –
CC(=O)c1ccc(NCC(C)(C)c2ccc(F)cc2)nn1 [1-(6-{[2-(4-fluorophenyl)-2-methylpropyl]amino}pyridazin-3-yl)ethan-1-one] | – | D (D=>20 uM) | –
CS(=O)(=O)N1CCN(Cc2cnc(-c3ccc(NCC4(c5ncccc5F)CCC4)nn3)s2)CC1 [1-({2-[6-({[(3-fluoro(2-pyridyl))cyclobutyl]methyl}ami-no)pyridazin-3-yl](1,3-thiazol-5-yl)}methyl)-4-(methylsulfonyl)piperazine] | – | – | Mean AC1.4 [2]: D (D=>20 uM)
NC(=O)C1CCCN(C(=O)c2cnc(-c3ccc(NCC4(c5ncccc5F)CCC4)nn3)s2)C1 (centres unmarked) [1-({2-[6-({[(3-fluoro-2-pyridyl)cyclobutyl]methyl}ami-no)pyridazin-3-yl]-1,3-thiazol-5-yl}carbonyl)piperidine-3-carboxamide] | C (C=10-20 uM) | – | –
NC(=O)c1cccc(-c2ccc(NCC3(C(=O)O)CCC3)nn2)c1 [1-({[6-(3-carbamoylphenyl)pyridazin-3-yl]amino}methyl)cyclobutane-carboxylic acid] | – | D (D=>20 uM) | –
N#Cc1cccc(-c2ccc(NCC3(C(=O)O)CCC3)nn2)c1 [1-({[6-(3-cyanophenyl)pyridazin-3-yl]amino}methyl)cyclobutane-carboxylic acid] | – | D (D=>20 uM) | –
CC(C)(CNc1ccc(-c2ccc3[nH]nc(C(O)CO)c3c2)nn1)c1ccc(F)cc1 (centres unmarked) [1-[5-(6-{[2-(4-fluorophenyl)-2-methylpropyl]amino}pyridazin-3-yl)-1H-indazol-3-yl]ethane-1,2-diol] | – | B (B=1-10 uM) | –
CC(C)(CNc1ccc(C(=O)N2CCC2C(N)=O)nn1)c1ccc(F)cc1 (centres unmarked) [1-[(6-{[2-(4-fluorophenyl)-2-methylpropyl]amino}pyridazin-3-yl)carbonyl]azetidine-2-carboxamide] | – | D (D=>20 uM) | –
CC(C)(CNc1ccc(C(=O)N2CCCCC2C(N)=O)nn1)c1ccc(F)cc1 (centres unmarked) [1-[(6-{[2-(4-fluorophenyl)-2-methylpropyl]amino}pyridazin-3-yl)carbonyl]piperidine-2-carboxamide] | – | D (D=>20 uM) | –

SMILES | Mean AC1.4 [1] | Mean AC1.4 [3] | also measured
CC(C)(CNc1ccc(C(=O)N2CCCC(C(N)=O)C2)nn1)c1ccc(F)cc1 (centres unmarked) [1-[(6-{[2-(4-fluorophenyl)-2-methylpropyl]amino}pyridazin-3-yl)carbonyl]piperidine-3-carboxamide] | – | D (D=>20 uM) | –
CC(C)(CNc1ccc(C(=O)N2CCC(C(N)=O)CC2)nn1)c1ccc(F)cc1 [1-[(6-{[2-(4-fluorophenyl)-2-methylpropyl]amino}pyridazin-3-yl)carbonyl]piperidine-4-carboxamide] | – | D (D=>20 uM) | –
CC(C)(CNc1ccc(C(=O)N2CCCC2C(N)=O)nn1)c1ccc(F)cc1 (centres unmarked) [1-[(6-{[2-(4-fluorophenyl)-2-methylpropyl]amino}pyridazin-3-yl)carbonyl]pyrrolidine-2-carboxamide] | – | D (D=>20 uM) | –
CC(C)(CNc1ccc(C(=O)N2CCC(C(N)=O)C2)nn1)c1ccc(F)cc1 (centres unmarked) [1-[(6-{[2-(4-fluorophenyl)-2-methylpropyl]amino}pyridazin-3-yl)carbonyl]pyrrolidine-3-carboxamide] | – | D (D=>20 uM) | –
CC(C)(CNc1ccc(C(=O)NC2(C(N)=O)CC2)nn1)c1ccc(F)cc1 [1-[(6-{[2-(4-fluorophenyl)-2-methylpropyl]amino}pyridazin-3-yl)carbonylamino]cyclopropane-carboxamide] | – | D (D=>20 uM) | –
CC(C)(CNc1ccc(C(=O)NC2(C(=O)O)CC2)nn1)c1ccc(F)cc1 [1-[(6-{[2-(4-fluorophenyl)-2-methylpropyl]amino}pyridazin-3-yl)carbonylamino]cyclopropane-carboxylic acid] | – | D (D=>20 uM) | –
CC(=O)N1CC(CNc2ccc(-c3ccc4[nH]ncc4c3)nn2)(c2ncccc2F)C1 [1-acetyl-3-(3-fluoro(2-pyridyl))-3-{[(6-(1H-indazol-5-yl)pyridazin-3-yl)amino]methyl}azetidine] | – | D (D=>20 uM) | –
CC(=O)N1CC=C(c2ccc(NCC(C)(C)c3ccc(F)cc3)nn2)CC1 [1-acetyl-4-(6-{[2-(4-fluorophenyl)-2-methylpropyl]amino}pyridazin-3-yl)-1,2,5,6-tetrahydropyridine] | – | D (D=>20 uM) | –
CC(=O)N1CCN(Cc2cnc(-c3ccc(NCC4(c5ncccc5F)CCC4)nn3)s2)CC1 [1-acetyl-4-({2-[6-({[(3-fluoro(2-pyridyl))cyclobutyl]methyl}ami-no)pyridazin-3-yl](1,3-thiazol-5-yl)}methyl)piperazine] | – | – | Mean AC1.4 [2]: D (D=>20 uM)
CC(O)c1cnc(-c2ccc(NCC3(c4ncccc4F)CCC3)nn2)s1 (centres unmarked) [1-{2-[6-({[(3-fluoro-2-pyridyl)cyclobutyl]methyl}ami-no)pyridazin-3-yl]-1,3-thiazol-5-yl}ethan-1-ol] | B (B=1-10 uM) | – | –
CC(=O)c1cnc(-c2ccc(NCC3(c4ncccc4F)CCC3)nn2)s1 [1-{2-[6-({[(3-fluoro-2-pyridyl)cyclobutyl]methyl}ami-no)pyridazin-3-yl]-1,3-thiazol-5-yl}ethan-1-one] | C (C=10-20 uM) | – | –
O=C(NCc1cnc(-c2ccc(NCC3(c4ncccc4F)CCC3)nn2)s1)c1ncn[nH]1 [1H-1,2,4-triazol-5-yl-N-({2-[6-({[(3-fluoro(2-pyridyl))cyclobutyl]methyl}ami-no)pyridazin-3-yl](1,3-thiazol-5-yl)}methyl)carboxamide] | A (A=<1 uM) | – | –
OC(c1cnc(-c2ccc(NCC3(c4ncccc4F)CCC3)nn2)s1)C(F)(F)F (centres unmarked) [2,2,2-trifluoro-1-{2-[6-({[(3-fluoro(2-pyridyl))cyclobutyl]methyl}ami-no)pyridazin-3-yl](1,3-thiazol-5-yl)}ethan-1-ol] | B (B=1-10 uM) | – | –
OC(O)(c1cnc(-c2ccc(NCC3(c4ncccc4F)CCC3)nn2)s1)C(F)(F)F [2,2,2-trifluoro-1-{2-[6-({[(3-fluoro(2-pyridyl))cyclobutyl]methyl}ami-no)pyridazin-3-yl](1,3-thiazol-5-yl)}ethane-1,1-diol] | B (B=1-10 uM) | – | –
OC(c1cnc(-c2ccc(NCC3(c4ncccc4F)CCC3)nn2)s1)C(F)F (centres unmarked) [2,2-difluoro-1-{2-[6-({[(3-fluoro(2-pyridyl))cyclobutyl]methyl}ami-no)pyridazin-3-yl](1,3-thiazol-5-yl)}ethan-1-ol] | B (B=1-10 uM) | – | –
CNC(=O)Cc1csc(NC(=O)c2ccc(NCC3(c4ncccc4F)CCC3)nn2)n1 [2-(2-{[6-({[(3-fluoro(2-pyridyl))cyclobutyl]methyl}ami-no)pyridazin-3-yl]carbonylamino}(1,3-thiazol-4-yl))-N-methylacetamide] | – | – | Mean AC1.4 [2]: A (A=<1 uM)
CC(C)(Nc1ccc(-c2ncc(C(N)=O)s2)nn1)c1ncccc1Cl [2-(6-{[1-(3-chloro(2-pyridyl))-isopropyl]amino}pyridazin-3-yl)-1,3-thiazole-5-carboxamide] | B (B=1-10 uM) | – | –
CC(C)(CNc1ccc(-c2ncc(C(N)=O)s2)nn1)c1ncccc1F [2-(6-{[2-(3-fluoro(2-pyridyl))-2-methylpropyl]amino}pyridazin-3-yl)-1,3-thiazole-5-carboxamide] | A (A=<1 uM) | – | –
CC(C)(CNc1ccc(-c2ccccc2C(N)=O)nn1)c1ccc(F)cc1 [2-(6-{[2-(4-fluorophenyl)-2-methylpropyl]amino}pyridazin-3-yl)benzamide] | – | B (B=1-10 uM) | –
CC(C)(CNc1ccc(-c2cc(C(N)=O)ccn2)nn1)c1ccc(F)cc1 [2-(6-{[2-(4-fluorophenyl)-2-methylpropyl]amino}pyridazin-3-yl)pyridine-4-carboxamide] | – | A (A=<1 uM) | –
NC(=O)c1cnc(-c2ccc(NCC3(c4ccccn4)CCC3)nn2)s1 [2-(6-{[(2-pyridylcyclobutyl)methyl]ami-no}pyridazin-3-yl)-1,3-thiazole-5-carboxamide] | A (A=<1 uM) | – | –
O=C(O)c1cnc(-c2ccc(NCC3(c4ccccn4)CCC3)nn2)s1 [2-(6-{[(2-pyridylcyclobutyl)methyl]ami-no}pyridazin-3-yl)-1,3-thiazole-5-carboxylic acid] | C (C=10-20 uM) | – | –
